# Experimental data from PMC12566511, “The Evaluation of (1R,4R,7R,10R)-α,α′,α″,α‴-Tetramethyl-1,4,7,10-tetraazacyclododecane-1,4,7,10-tetraacetic Acid (DOTMA) as a Chelator for Zirconium-89” (Molecules, 2025).
# Like-named read-outs stand apart in the source and are kept apart here.
# Columns and labels:
# [1] = cited from earlier work
# [2] = Solubility of the non-radioactive complex in conventional solvents; format: physicochemical; conditions: every conventional solvent tested
# Source text: As with our previous studies and to assist in our understanding of the chemical reactivity of this ligand with ^89Zr, we attempted to characterize the Zr-DOTMA complex. Unfortunately, the synthesis of Zr-DOTMA was problematic. […] This insolubility prevented any rigorous characterization using standard analytical techniques such as solution NMR, mass spectrometry, or single crystal X-ray diffraction analysis. Thus, to provide some characterization data, we completed solid-state NMR of Zr-DOTMA and compared its spectrum with that of the DOTMA ligand (Figures S1 and S2). Briefly, the C-13 spectrum of the DOTMA ligand is composed of four groups of resonances consistent with CH3, CH2, CH, and COO^−. The spectra are assigned as COO^− near 182 ppm, CH at 58 ppm, CH2 centered near 48 ppm, and four methyl resonances near 9.5 ppm. The CH3 is attached to a chiral carbon atom at a stereogenic center. In contrast to the ligand spectra, the Zr-DOTMA spectrum is comprised of a major crystalline phase, apparently with Z’ = 1 having resonances consistent with CH3, CH2, CH, and COO at 11, 47, 66, and 179 ppm, respectively. It also has minor resonances near 52, 62, and 174 ppm. The resonances near 174 are composed of at least three unique carbons but, based on linewidth, appear to be crystalline in nature. The methyl groups are magnetically inequivalent.
# [3] = parameters: method as in PMID 28451334; conditions: normal mice, cited from earlier work
compound,measurement,setting,value
O=C([O-])CN1CCN(CC(=O)[O-])CCN(CC(=O)[O-])CCN(CC(=O)[O-])CC1.[89Zr+4] [[^89Zr]Zr-DOTA],LogP,[1]; value reported,−3.80 ± 0.04
O=C([O-])CN1CCN(CC(=O)[O-])Cc2cccc(n2)CN(CC(=O)[O-])CC1.[89Zr+4] [[^89Zr]Zr-PCTA],LogP,[1]; previously reported results,−3.09 ± 0.03
"C[C@H](C(=O)[O-])N1CCN([C@H](C)C(=O)[O-])CCN([C@H](C)C(=O)[O-])CCN([C@H](C)C(=O)[O-])CC1.[Zr+4] [Zr-DOTMA, Zirconium (1R,4R,7R,10R)-α,α′,α″,α‴-Tetramethyl-1,4,7,10-tetraazacyclododecane-1,4,7,10-tetraacetic Acid]",solubility (in words),[2],insoluble in every conventional solvent tested
CC(=O)N([O-])CCCCCNC(=O)CCC(=O)N([O-])CCCCCNC(=O)CCC(=O)N([O-])CCCCCN.[89Zr+4] [[^89Zr]Zr-DFO],LogP,[1]; previously reported results,−2.83 ± 0.03
same,"bone (72 h p.i., %ID/g ± SD)",[3]; bone,0.079 ± 0.006 %ID/g
same,"kidney (72 h p.i., %ID/g ± SD)",[3]; kidney,0.69 ± 0.09 %ID/g
same,"liver (72 h p.i., %ID/g ± SD)",[3]; liver,0.066 ± 0.009 %ID/g
